Usually fraction unbound stands for free concentration divided by total concentration. Read a low fraction unbound as little free substance. Usually pIC50 stands for the IC50 on a negative log10 scale, so that one unit is a factor of ten.

A short description of data set [1]: in vitro plasma protein binding. The settings on record: human, animals and humans. Type of data set: in vitro ADME. From the text:
(§1) Exposure increased more than dose-proportionally at low doses. Variability in exposure was high. • In vitro plasma protein binding was between 79.6% and 94.2% in animals and humans. Volume of distribution after intravenous dosing was high. […] Main metabolic pathways were oxygenation, hydrogenation, dehydrogenation, dealkylation, acetylation, glucuronidation, and/or glutathione conjugation. • In rats, >80% of drug-related material was found in feces, 11% to 20% in bile, and <4% in urine. […] There were no effects on embryofetal development up to 1 mg/kg/dose in rats and 30 mg/kg/dose in rabbits.

The nature of data set [2]: embryofetal development in rabbits. It counts as in vivo.
Description: as §1

A short description of data set [3]: off-target liabilities in vitro. To be noted: read-out: lowest IC50 for off-target liabilities.
Description: as §1

A further data set in a line: BCS classification. Type of data set: physicochemical. The settings on record: high solubility, low permeability. How it is done:
AUC48h was approximately 17% (95% Cl: 65.89-105.71%) lower in fed condition compared with fasted. These differences are aligned with BCS Class 3 (high solubility, low permeability) compound properties.

Another data set can be described thus: genotoxic potential.
Description: as §1

In another data set the target is CYP3A4 (Homo sapiens, UniProt P08684). The data set is described as follows: CYP3A4 substrate and inhibition. It counts as in vitro ADME.
Sequence of CYP3A4 (P08684 whole entry): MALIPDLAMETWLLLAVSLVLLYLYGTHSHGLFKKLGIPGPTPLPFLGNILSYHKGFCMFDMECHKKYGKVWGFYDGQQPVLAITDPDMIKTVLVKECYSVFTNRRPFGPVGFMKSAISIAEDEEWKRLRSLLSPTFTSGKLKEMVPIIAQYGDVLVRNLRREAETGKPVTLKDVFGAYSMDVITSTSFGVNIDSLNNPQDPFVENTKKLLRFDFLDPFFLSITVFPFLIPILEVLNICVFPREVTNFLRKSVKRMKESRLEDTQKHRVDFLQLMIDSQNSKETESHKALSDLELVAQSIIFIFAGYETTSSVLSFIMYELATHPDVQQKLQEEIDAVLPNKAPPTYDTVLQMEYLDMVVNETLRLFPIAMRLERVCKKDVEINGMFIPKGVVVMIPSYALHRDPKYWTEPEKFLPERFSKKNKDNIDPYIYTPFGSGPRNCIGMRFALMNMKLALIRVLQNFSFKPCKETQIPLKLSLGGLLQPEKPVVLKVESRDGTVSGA
Description: as §1

pIC50: −log10 of the molar value. A value given as a limit tells only on which side of the number the result lay.

Regarding `CCCCOc1nc(N)c2[nH]cc(Cc3ccc(CN4CCCC4)cc3)c2n1` [Compound 4], the fraction unbound in data set [1] fell in the range of 0.058 to 0.204. For the same compound, in data set [2], the “dose without effects on embryofetal development” value is recorded as ≤ 30 mg/kg/dose. Further, in data set [3], the pIC50 is ≤ 5.71. The BCS class result in “BCS classification” is recorded as “BCS Class 3”. The genotoxic potential result in “genotoxic potential” is “free of genotoxic potential”. At CYP3A4, the CYP3A4 substrate result is listed as “substrate” and the pIC50 is 6.23.

These data come from patent publication US12263172B2, “Toll-like receptor agonists for use in the treatment of hepatitis b” (priority 2019, dated 2025).
